# Results: patent US11903935B2, “Inhibitors of SARM1 NADase activity and uses thereof” (Washington University, priority 2016, dated 2024)
# pIC50: −log10 of the molar value. Like-named read-outs stand apart in the source and are kept apart here.
# How the values were obtained:
# SARM1 TIR = SARM1 TIR (Homo sapiens (Human), UniProt Q6SZW1); assay: SARM1 TIR-based assay (bacterially expressed, tagged SARM1 TIR fragment on beads); assay type: biochemical; settings: for Inhibitor: inhibitor of SARM1 TIR NAD cleavage activity; for Substrate: substrate of SARM1 TIR NAD cleavage activity
# SARM1 TIR, sequence (Q6SZW1 other isoform, or with tags, fused parts or gaps): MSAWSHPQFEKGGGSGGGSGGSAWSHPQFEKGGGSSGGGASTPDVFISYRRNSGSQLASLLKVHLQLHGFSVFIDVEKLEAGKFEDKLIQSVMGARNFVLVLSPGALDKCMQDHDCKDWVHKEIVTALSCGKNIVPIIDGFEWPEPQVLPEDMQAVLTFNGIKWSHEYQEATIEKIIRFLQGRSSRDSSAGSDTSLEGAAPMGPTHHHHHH
# From the text: The present Example describes a SARM1 TIR-based Assay. This assay is similar to the assay described in Example 1, but allows for the identification and/or characterization of compounds that directly interact with the TIR domain, whereas the assay described in Example 1 can also identify compounds that disrupt SAM domain interactions. This assay makes use of the bacterial expression of a tagged version of the SARM1 TIR fragment that can be affinity purified. Displaying this artificial SARM1 TIR domain on a solid surface (i.e. affinity beads) generates an active NAD+ cleavage enzyme.
# The TIR domain of SARM1 was tagged with a tandem STREP-TAG® at the N-terminus, and a polyhistidine tag at the C-terminus, and was cloned into a pET30a+ plasmid. The construct was then transformed into SHuffle® T7 Express Competent E. coli (New England BioLabs, Ipswich, MA) and single colonies were grown overnight. The next day, cultures were diluted in LB media, grown at 30° C. until they reached A600=0.4-0.8, when IPTG (0.5 mM final concentration) was added. The bacteria were grown for an additional 4 h, pelleted by centrifugation, washed with PBS and stored at −80° C. For protein purification, the frozen bacterial pellet was thawed on ice, resuspended in binding buffer (without protease inhibitors) and incubated with 100 μg/mL lysozyme for 15 min on ice. Protease inhibitor cocktail was then added and the cells were lysed by sonication.
# The SARM1 TIR protein was first purified by Strep Tag affinity methods where bacterial lysates were incubated with […] (STREP-TACTIN®, IBA GmBH, Gottingen Germany) type 3 XT beads suspension (IBA Lifesciences) for 30 min. The beads were then washed three times with binding buffer, and bound proteins were eluted from MagStrep type 3 XT beads with 22.5 mM biotin for 25 min. Supernatant containing the eluted protein was separated from MagStrep beads, and incubated with 10 μL Co2+ DYNABEAD® (ThermoFisher Scientific, Waltham, MA) suspension for 30 min to bind SARM1-TIR proteins via the His tag. The beads were then washed at least two times with binding buffer and resuspended in 100 μL of binding buffer for NADase assay.
# Ten microliters of purified SARM1-TIR laden beads were incubated with 5 μM NAD+ in reaction buffer (92.4 mM NaCl and 0.64×PBS). Reactions were carried out at 25° C. for the indicated amount of time and stopped by addition of 1M of perchloric acid (HClO4) and placing the tube on ice. NAD+ metabolites were extracted using HClO4/K2CO3 method and quantified by HPLC (see metabolite measurement below). For LC-MS/MS analysis, the extraction was performed using 50% methanol in distilled water and chloroform (see LC-MS/MS metabolite measurement below). […] Select potent inhibitors (622608, 622689) identified from SARM1 SAM-TIR lysate screen were added to the reaction at 5 μM. NAD normalized to control at 0 min.
# Metabolites were isolated from enzyme reaction mixture by extracting with 1M HClO4, then neutralized with 3M K2CO3, and followed by separation by centrifugation. The supernatant (90 μL) containing the extracted metabolites was mixed with 0.5M Potassium Phosphate buffer (10 μL) and metabolites were analyzed by HPLC (Nexera X2) with KINETEX® (100×3 mm, 2.6 μm; PHENOMENEX®) column and metabolites are monitored with absorbance at 254 nm. Internal standards for NAD+, Nicotinamide (Nam), ADP Ribose (ADPR) were used to generate standard curves for quantification of the respective compounds. The levels for each compound in each experimental sample was normalized to the 0 min time point that was analyzed concurrently.
# These analogs were tested using an assay that makes use of a bacterially-expressed tagged version of the SARM1 TIR fragment, as described in Example 2. Displaying this artificial SARM1 TIR domain on a solid surface (i.e. affinity beads) generates an active NAD+ cleavage enzyme.
# human SARM1 SAM-TIR = human SARM1 SAM-TIR (Homo sapiens (Human), UniProt Q6SZW1); assay: biochemical; settings: for IC50: 10 point curve 0.01-250 uM; for ADPR Production (%) / NAD Consumption (%): single point screening at 150 μM; for pIC50: NAD consumption, 7 point curve 0-about 6 uM, read-out: IC50
# human SARM1 SAM-TIR, sequence (Q6SZW1 other isoform, or with tags, fused parts or gaps): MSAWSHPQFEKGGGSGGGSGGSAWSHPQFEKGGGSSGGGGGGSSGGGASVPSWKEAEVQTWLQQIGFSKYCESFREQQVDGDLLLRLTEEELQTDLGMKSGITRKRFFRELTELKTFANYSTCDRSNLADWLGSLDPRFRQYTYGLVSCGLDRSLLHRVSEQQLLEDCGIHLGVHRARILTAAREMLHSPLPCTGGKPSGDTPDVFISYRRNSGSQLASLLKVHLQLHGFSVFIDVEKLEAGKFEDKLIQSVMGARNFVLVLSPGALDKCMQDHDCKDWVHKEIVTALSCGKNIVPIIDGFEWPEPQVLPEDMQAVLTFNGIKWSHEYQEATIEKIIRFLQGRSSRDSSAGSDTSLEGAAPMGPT
# From the text: When these NRK1-expressing cells are supplemented with NR, NAD+ levels are augmented and cell viability is enhanced to enable efficient production and purification of the constitutively active human SARM1 SAM-TIR protein fragment. To express SARM1 SAM-TIR, the SARM1 N-terminal auto-inhibitory domain was deleted, keeping only the initiator Met. […] The fragment encoding the SARM1 SAM-TIR protein was cloned into the FCIV expression construct by standard methods to generate the FCIV-SST vector.
# NRK1-HEK293T cells were seeded onto 150 cm^2 plates at 20×10^6 cells per plate in 25 mL growth medium comprised of 90% DMEM (Gibco 11965-084) and 10% FBS (Sigma F0926). The next day, cells were transfected by first premixing 15 ug FCIV-SST SST (SAM-TIR expression plasmid from Washington University) with 45 ul X-tremeGENE 9 DNA Transfection Reagent (Roche product #06365787001) and 750 ul OptiMEM (Gibco 31985062) and then adding this mix directly to the cells. […] Forty-eight hours after transfection, cells were harvested, pelleted by centrifugation at 1,000 rpm (Eppendorf Centrifuge 5804R, 15 Amp Version), and washed once with cold PBS (0.01 M phosphate buffered saline NaCl 0.138 M; KCl 0.0027 M; pH 7.4). The cells were resuspended in 0.5 ml PBS with protease inhibitors (Complete protease inhibitor cocktail, Roche product #11873580001). Cell lysates were prepared by sonication (Misonix Microson Ultrasonic Cell Disruptor, output=3, 20 episodes of stroke). The lysates were centrifuged at 12,000×g for 10 min at 4° C. (Eppendorf Centrifuge 5415C) to remove cell debris and the aliquots of supernatant (containing SARM1 SAM-TIR protein) were stored at −80° C. for later use. Protein concentration was determined by the Bicinchoninic (BCA) method and used to normalize lysate concentrations.
# Reaction mixtures were prepared on ice by mixing 10 ul of SARM1 SAM-TIR cell lysate (320 fold dilution of lysate 11-3-2016, or 80 fold lysate dilution for assessment of time dependence) in PBS (pH 7.4) with 5 ul of compound stock. Compounds were first dissolved DMSO at 10 mM (final stock concentration). A 10 point compound dilution curve was prepared first with a 20 ul to 40 ul serial dilution in DMSO, followed by a 10 fold dilution (12 ul+108 ul) in PBS.
# SARM1 SAM-TIR lysate = SARM1 SAM-TIR lysate (Homo sapiens (Human), UniProt Q6SZW1); assay: HPLC-based SARM1 SAM-TIR NADase assay 1 (inhibitor screen, NAD+/ADPR ratio); assay type: biochemical
# Method: NRK1-HEK293T cells were seeded onto 150 cm^2 plates at 20×10^6 cells per plate. The next day, the cells were transfected with 15 μg FCIV-SST (SAM-TIR expression plasmid, SEQ ID NO: 9) using X-[…]™ 9 DNA Transfection Reagent (Roche product #06365787001). The cultures were supplemented with 1 mM NR at time of transfection to minimize toxicity from SAM-TIR overexpression. Forty-eight hours after transfection, cells were harvested, pelleted by centrifugation at 1,000 rpm (Sorvall ST 16R centrifuge, Thermo Fisher), and washed once with cold PBS (0.01 M phosphate buffered saline NaCl 0.138 M; KCl 0.0027 M; pH 7.4). The cells were resuspended in PBS with protease inhibitors (cOmplete™ protease inhibitor cocktail, Roche product #11873580001) and cell lysates were prepared by sonication (Branson Sonifer 450, output=3, 20 episodes of stroke). […] Protein concentration was determined by the Bicinchoninic (BCA) method and used to normalize lysate concentrations. […]
# Reaction mixtures were prepared on ice by mixing SARM1 SAM-TIR cell lysate (0.14 μg total protein), compound stock (5 μM final concentration), and PBS (pH 7.4) to a final volume of 12 μl. […] The supernatant was transferred and analyzed by HPLC (Shimadzu Nexera X2) with KINETEX® (100×3 mm, 2.6 μm; PHENOMENEX®) column and metabolites were monitored with absorbance at 254 nm.
# To identify inhibitors of SARM1 NADase activity, the levels of NAD+ and the enzymatic cleavage product ADPR in the reactions were quantified by HPLC. From these values, the NAD+/ADPR ratio for each compound was calculated and the ratio used as a measure of NAD+ cleavage activity (Note: there is a small residual but detectable ADPR signal in control samples derived from the HEK293 lysate). […]
# The NAD+/ADPR ratio was used to determine the NAD+ cleavage activity of the SARM1 SAM-TIR lysate using the HPLC based assay 1. It will be appreciated that any precise, quantitative method of measuring NAD+ levels could be used for the detection of SARM1 NADase activity. […]
# [1] = read-out: IC50 (μM, ADPR Production)
# [2] = read-out: IC50 (μM, NAD Consumption)
smiles,measurement,setting,value
CC(=O)c1cccnc1 [3-acetylpyridine],Inhibitor,SARM1 TIR,No
same,Substrate,SARM1 TIR,No
NC(=O)c1ccc(N)nc1 [6-aminonicotinamide],Inhibitor,SARM1 TIR,No
same,Substrate,SARM1 TIR,No
NC(=O)c1ccccc1 [Benzamide],Inhibitor,SARM1 TIR,No
same,Substrate,SARM1 TIR,No
CN(C)c1nc(=Nc2cccc(Cl)c2)ss1 [Compound 622689],inhibition of NADase activity of purified SARM1 TIR,"SARM1 TIR; compound at 5 μM, 5 μM NAD+",inhibit NADase activity of purified SARM1 TIR
NC(=O)C1CCCc2c1[nH]c1ccc(Cl)cc21 (stereo not shown) [Ex-527],Substrate,SARM1 TIR,No
"Cc1c(OCC(F)(F)F)ccnc1C[S+]([O-])c1nc2ccccc2[nH]1 (stereo not shown) [I^A-2, lansoprazole]",IC50,human SARM1 SAM-TIR; [1],3.3 µM
same,IC50,human SARM1 SAM-TIR; [2],3.5 µM
"COCCCOc1ccnc(C[S+]([O-])c2nc3ccccc3[nH]2)c1C (stereo not shown) [I^A-6, rabeprazole]",inhibition at 10 µM,"SARM1 SAM-TIR lysate; at 10 μM, 5 μM NAD",95%
same,inhibition at 30 µM,"SARM1 SAM-TIR lysate; at 30 μM, 5 μM NAD",98.8%
same,IC50,human SARM1 SAM-TIR; [1],3.2 µM
same,IC50,human SARM1 SAM-TIR; [2],3.3 µM
"COc1ccc2[nH]c([S+]([O-])Cc3ncc(C)c(OC)c3C)nc2n1 (stereo not shown) [I^A-8, tenatoprazole]",identified as SARM1 NADase inhibitor in initial screening,SARM1 SAM-TIR lysate,SARM1 NADase inhibitors
same,IC50,human SARM1 SAM-TIR; [1],8.7 µM
same,IC50,human SARM1 SAM-TIR; [2],7.4 µM
same,ADPR Production (%),human SARM1 SAM-TIR,C (“C” indicating <50%)
same,NAD Consumption (%),human SARM1 SAM-TIR,B (“B” indicating between 50%-75%)
"Cc1c(OCC(F)(F)F)ccnc1CSc1nc2ccccc2[nH]1 [I^A-9, lansoprazole sulfide]",ADPR Production (%),human SARM1 SAM-TIR,A (“A” indicating >75%)
same,NAD Consumption (%),human SARM1 SAM-TIR,A (“A” indicating >75%)
"Cc1c(OCC(F)(F)F)ccnc1CS(=O)(=O)c1nc2ccccc2[nH]1 [I^A-10, lansoprazole sulfone]",ADPR Production (%),human SARM1 SAM-TIR,A (“A” indicating >75%)
same,NAD Consumption (%),human SARM1 SAM-TIR,A (“A” indicating >75%)
"COc1ccc2c(c1)nc([S+]([O-])Cc1ncc(C)c(OC)c1C)n2C (stereo not shown) [I^A-11, N-methyl omeprazole]",ADPR Production (%),human SARM1 SAM-TIR,A (“A” indicating >75%)
same,NAD Consumption (%),human SARM1 SAM-TIR,A (“A” indicating >75%)
"COc1ccc2[n-]c([S+]([O-])Cc3ncc(C)c(OC)c3C)nc2c1.[Na+] (stereo not shown) [I^A-13, sodium esomeprazole]",ADPR Production (%),human SARM1 SAM-TIR,B (“B” indicating between 50%-75%)
same,NAD Consumption (%),human SARM1 SAM-TIR,A (“A” indicating >75%)
CN(C)c1n/c(=N/c2cccc(Cl)c2)ss1 [I^B-1],pIC50,human SARM1 SAM-TIR,~6.15
CN(C)c1n/c(=N/Cc2ccco2)ss1 [I^B-2],pIC50,human SARM1 SAM-TIR,~6.82
O=Cc1cccnc1 [Nicotinaldehyde],Inhibitor,SARM1 TIR,No
same,Substrate,SARM1 TIR,No
"NC(=O)c1ccc[n+]([C@@H]2O[C@H](COP(=O)([O-])OP(=O)(O)OC[C@H]3O[C@@H](n4cnc5c4ncn4ccnc54)[C@H](O)[C@@H]3O)[C@@H](O)[C@H]2O)c1 [Nicotinamide 1, N6-ethenoadenine dinucleotide]",Substrate,SARM1 TIR,No
NC(=O)c1ccc[n+](C2OC(COP(=O)(O)OP(=O)(O)OCC3OC(n4cnc5c(=O)[nH]cnc54)C(O)C3O)C(O)C2O)c1 (stereo not shown) [Nicotinamide Hypoxanthine dinucleotide],Inhibitor,SARM1 TIR,inhibitor and Yes
same,Substrate,SARM1 TIR,substrate and Yes
"NC(=O)C1=CN([C@@H]2O[C@H](COP(=O)(O)OP(=O)(O)OC[C@H]3O[C@@H](n4cnc5c(N)ncnc54)[C@H](OP(=O)(O)O)[C@@H]3O)[C@@H](O)[C@H]2O)C=CC1 [Nicotinamide adenine dinucleotide 2′-phosphate, reduced]",Inhibitor,SARM1 TIR,Unclear
NC(=S)c1cccnc1 [Thionicotinamide],Inhibitor,SARM1 TIR,No
same,Substrate,SARM1 TIR,No
